# Test results reported in patent US20240116857A1 (St. Louis University, priority 2022, published 2024).
# Test system: E. coli BW25113
# Assay: MIC, 2-fold broth dilution, E. coli BW25113
# Assay type: cell-based, Escherichia coli
# Conditions: Escherichia coli; E. coli BW25113; asterisk in column 1-10; read-out: MIC, μM 1-10
row,SMILES,MIC [µM]
1,"C[N+](C)(C)c1ccc(NC(=O)c2ccc(-c3ccc(C(=O)Nc4ccc([N+](C)(C)C)c(F)c4)cc3)cc2)cc1F [Example 77, 2-fluoro-4-(4′-{[3-fluoro-4-(trimethylazaniumyl)phenyl]carbamoyl}-[1,1′-biphenyl]-4-amido)-N,N,N-trimethylanilinium]",1 to 10

# Same assay, conditions: Escherichia coli; E. coli BW25113; asterisk in column >50; read-out: MIC, μM >50
row,SMILES,MIC [µM]
1,"O=C(Nc1ccc(Nc2ccncc2)cc1)c1ccc(C(=O)Nc2ccc(Nc3ccncc3)cc2)c(Br)c1 [Example 68, 2-bromo-N^1,N^4-bis(4-(pyridin-4-ylamino)phenyl)terephthalamide]",> 50
2,"C[n+]1ccc(Nc2ccc(NC(=O)C3CCC(C(=O)Nc4ccc(Nc5cc[n+](C)cc5)cc4)CC3)cc2)cc1 (stereo not drawn) [Example 69, 4,4′-((((E)-cyclohexanedicarbonylbis(azanediyl))bis(4,1-phenylene))bis(azanediyl))bis(1-methylpyridin-1-ium)]",> 50
3,"CN(C)c1ccc(NS(=O)(=O)c2ccc(-c3ccc(S(=O)(=O)Nc4ccc(N(C)C)cc4)cc3)cc2)cc1 [Example 70, N^4, N^4′-bis(4-(dimethylamino)phenyl)-[1,1′-biphenyl]-4,4′-disulfonamide]",> 50
4,C[N+](C)(C)c1ccc(NS(=O)(=O)c2ccc(-c3ccc(S(=O)(=O)Nc4ccc([N+](C)(C)C)cc4)cc3)cc2)cc1 [Example 71],> 50
5,"CN(C)c1ccc(NC(=O)c2ccc(-c3ccc(C(=O)Nc4ccc(N(C)C)cc4)cn3)nc2)cc1 [Example 72, N^5,N^5′-bis(4-(dimethylamino)phenyl)-[2,2′-bipyridine]-5,5′-dicarboxamide]",> 50
6,"C[N+](C)(C)c1ccc(NC(=O)c2ccc(-c3ccc(C(=O)Nc4ccc([N+](C)(C)C)cc4)cn3)nc2)cc1 [Example 73, 4,4′-(([2,2′-bipyridine]-5,5′-dicarbonyl)bis(azanediyl))bis(N,N,N-trimethylbenzenaminium)]",> 50
7,"CN(C)c1ccc(NC(=O)c2ccc(-c3ccc(C(=O)Nc4ccc(N(C)C)c(C(F)(F)F)c4)cc3)cc2)cc1C(F)(F)F [Example 74, N^4,N^4′-bis(4-(dimethylamino)-3-(trifluoromethyl)phenyl)-[1,1′-biphenyl]-4,4′-dicarboxamide]",> 50
8,"CN(C)c1ccc(NC(=O)c2ccc(-c3ccc(C(=O)Nc4ccc(N(C)C)c(F)c4)cc3)cc2)cc1F [Example 75, N^4,N^4′-bis(4-(dimethylamino)-3-fluorophenyl)-[1,1′-biphenyl]-4,4′-dicarboxamide]",> 50
9,"CN(C)c1ccc(NC(=O)c2ccnc(-c3cc(C(=O)Nc4ccc(N(C)C)cc4)ccn3)c2)cc1 [Example 76, N^4,N^4′-bis(4-(dimethylamino)phenyl)-[2,2′-bipyridine]-4,4′-dicarboxamide]",> 50
10,"C[N+](C)(C)c1ccc(NC(=O)c2ccnc(-c3cc(C(=O)Nc4ccc([N+](C)(C)C)cc4)ccn3)c2)cc1 [Example 78, 4,4′-(([2,2′-bipyridine]-4,4′-dicarbonyl)bis(azanediyl))bis(N,N,N-trimethylbenzenaminium)]",> 50
11,"O=C(Nc1ccc(Nc2ccncc2)cc1)c1ccc(C(=O)Nc2ccc(Nc3ccncc3)cc2)nc1 [Example 79, N^2,N^5-bis(4-(pyridin-4-ylamino)phenyl)pyridine-2,5-dicarboxamide]",> 50
12,"CN(C)c1ccc(NC(=O)c2ccc(-c3ccc(C(=O)Nc4ccc(N(C)C)c(Br)c4)cc3)cc2)cc1Br [Example 80, N^4,N^4′-bis(3-bromo-4-(dimethylamino)phenyl)-[1,1′-biphenyl]-4,4′-dicarboxamide]",> 50
13,"O=C(Nc1ccc(-c2ccc(NC(=O)c3ccncc3)cc2)cc1)c1ccncc1 [Example 81, N,N′-([1,1′-biphenyl]-4,4′-diyl)diisonicotinamide]",> 50
14,"C[N+](C)(C)c1ccc(NC(=O)c2ccc(-c3ccc(C(=O)Nc4ccc([N+](C)(C)C)c(C(F)(F)F)c4)cc3)cc2)cc1C(F)(F)F [Example 82, 4,4′-(([1,1′-biphenyl]-4,4′-dicarbonyl)bis(azanediyl))bis(N,N,N-trimethyl-2-(trifluoromethyl)benzenaminium)]",> 50
